According to US20240174718A1, “RYANODINE RECEPTOR INHIBITOR COMPOUNDS AND METHODS RELATING THERETO” (Vanderbilt University, priority 2022, published 2024):
pIC50: −log10 of the molar value. Several values for one entry are separate records, joined by “and”; a condition that tells them apart may be missing. Equal values may be shown once.

Tests used:
[1] = test system: Casq2-/- mice; experiment: Catecholamine-induced arrhythmia challenge (ECG) in CPVT mice; type: in vivo, mouse
Protocol: Triple crossover study design for in vivo arrhythmia challenge. N=22 Casq2^−/− mice were randomly assigned to vehicle (DMSO), 3 mg/kg, or 30 mg/kg ent-B1 and crossed over twice with one-week washouts between treatment. Mice underwent catecholamine-induced arrhythmia challenge with isoproterenol 15 min after intraperitoneal drug administration. […] Ectopic beats are denoted by p (PVC), c (couplet), and vt (ventricular tachycardia). Normal sinus beats are not marked. […] Individual data are shown with median and interquartile range. Bonferroni-adjusted P values by pairwise Wilcoxon matched-pairs signed rank test. *P=0.020 vs Veh; #P=0.039 vs Veh. […] Bonferroni-adjusted P values by pairwise Wilcoxon matched- pairs signed rank test. #P=0.0058 vs Vehicle.
ECG recording—Nine male and thirteen female Casq2^−/− mice 17-20 weeks old were randomly assigned to a three-by-three crossover design such that every treatment sequence was sampled. Mice were pretreated with intraperitoneal injection of vehicle (DMSO), 3 mg/kg ent-B1, or 30 mg/kg of ent-B1 fifteen minutes prior to baseline ECG recording. Mice were then injected with 3 mg/kg isoproterenol intraperitoneally. Recordings were continued for 5 minutes or for 1 minute after cessation of ventricular ectopy. A washout period of one week was used between treatments. The Vanderbilt Institutional Animal Care and Use Committee (IACUC) approved the use of mice in these studies (protocol #M1900057-01). Animals had free access to food and water.
ECG analysis—LabChart (AD Instruments, Inc) was used to analyze ECG recordings by a reviewer blinded to treatment dose. ECG records were examined to quantify premature ventricular contractions (PVCs), duration of ventricular tachycardia, heart rate, and baseline ECG parameters (PR, QRS and QT interval). Arrhythmias were scored on a five point ordinal scale based on the number of PVCs with the following criteria: 1) zero point for no PVCs; 2) one point for isolated PVCs; 3) two points for bigeminy (alternating sinus beats and PVCs); 4) three points for couplets (two consecutive PVCs); and 5) four points for three or more consecutive PVCs (ventricular tachycardia).
All tests were two-sided and a p-value cutoff of <0.05 was used to denote significance. Concentration-response curves for RyR2 single-channel, [^3H]ryanodine ligand binding and intact myocyte assays were generated using non-linear regression with the equation: Y=Bottom+(Top−Bottom)/(1+(IC50/X)^HillSlope) using least square regression, no weighting, and no constrains on the parameters. The distributions of relative RyR2 open probability at each [ent-B1] were normalized by taking the log of each sample. For the 3×3 crossover in vivo ECG study, a pre-test was conducted using a mixed model with fixed effects of sequence and period; mice were treated as random effects.
Casq2^−/− mice are a validated model for preclinical testing of antiarrhythmic drugs for CPVT. […] The same doses of ent-B1 were tested in a triple-crossover design with each mouse receiving vehicle (DMSO), 3 mg/kg, and 30 mg/kg with a one-week washout period between experiments. […] ECGs were analyzed in blinded fashion and ventricular arrhythmias quantified. […] We also scored the mice based on the ventricular arrhythmia severity, i.e., premature ventricular complexes (PVCs)<bigeminy<couplets<ventricular tachycardia. […]

[2] = target: T1, RyR2 (Sus scrofa, UniProt A0A5G2R1W3); experiment: [3H]ryanodine ligand binding assay in cardiac SR vesicles; parameters: species or system porcine; conditions: relative to vehicle (DMSO)
T1 construct: isolated SR vesicles derived from porcine cardiac muscle; from tissue; host or cells: porcine heart (cardiac sarcoplasmic reticulum vesicles)
T1 sequence (A0A5G2R1W3 20-4900): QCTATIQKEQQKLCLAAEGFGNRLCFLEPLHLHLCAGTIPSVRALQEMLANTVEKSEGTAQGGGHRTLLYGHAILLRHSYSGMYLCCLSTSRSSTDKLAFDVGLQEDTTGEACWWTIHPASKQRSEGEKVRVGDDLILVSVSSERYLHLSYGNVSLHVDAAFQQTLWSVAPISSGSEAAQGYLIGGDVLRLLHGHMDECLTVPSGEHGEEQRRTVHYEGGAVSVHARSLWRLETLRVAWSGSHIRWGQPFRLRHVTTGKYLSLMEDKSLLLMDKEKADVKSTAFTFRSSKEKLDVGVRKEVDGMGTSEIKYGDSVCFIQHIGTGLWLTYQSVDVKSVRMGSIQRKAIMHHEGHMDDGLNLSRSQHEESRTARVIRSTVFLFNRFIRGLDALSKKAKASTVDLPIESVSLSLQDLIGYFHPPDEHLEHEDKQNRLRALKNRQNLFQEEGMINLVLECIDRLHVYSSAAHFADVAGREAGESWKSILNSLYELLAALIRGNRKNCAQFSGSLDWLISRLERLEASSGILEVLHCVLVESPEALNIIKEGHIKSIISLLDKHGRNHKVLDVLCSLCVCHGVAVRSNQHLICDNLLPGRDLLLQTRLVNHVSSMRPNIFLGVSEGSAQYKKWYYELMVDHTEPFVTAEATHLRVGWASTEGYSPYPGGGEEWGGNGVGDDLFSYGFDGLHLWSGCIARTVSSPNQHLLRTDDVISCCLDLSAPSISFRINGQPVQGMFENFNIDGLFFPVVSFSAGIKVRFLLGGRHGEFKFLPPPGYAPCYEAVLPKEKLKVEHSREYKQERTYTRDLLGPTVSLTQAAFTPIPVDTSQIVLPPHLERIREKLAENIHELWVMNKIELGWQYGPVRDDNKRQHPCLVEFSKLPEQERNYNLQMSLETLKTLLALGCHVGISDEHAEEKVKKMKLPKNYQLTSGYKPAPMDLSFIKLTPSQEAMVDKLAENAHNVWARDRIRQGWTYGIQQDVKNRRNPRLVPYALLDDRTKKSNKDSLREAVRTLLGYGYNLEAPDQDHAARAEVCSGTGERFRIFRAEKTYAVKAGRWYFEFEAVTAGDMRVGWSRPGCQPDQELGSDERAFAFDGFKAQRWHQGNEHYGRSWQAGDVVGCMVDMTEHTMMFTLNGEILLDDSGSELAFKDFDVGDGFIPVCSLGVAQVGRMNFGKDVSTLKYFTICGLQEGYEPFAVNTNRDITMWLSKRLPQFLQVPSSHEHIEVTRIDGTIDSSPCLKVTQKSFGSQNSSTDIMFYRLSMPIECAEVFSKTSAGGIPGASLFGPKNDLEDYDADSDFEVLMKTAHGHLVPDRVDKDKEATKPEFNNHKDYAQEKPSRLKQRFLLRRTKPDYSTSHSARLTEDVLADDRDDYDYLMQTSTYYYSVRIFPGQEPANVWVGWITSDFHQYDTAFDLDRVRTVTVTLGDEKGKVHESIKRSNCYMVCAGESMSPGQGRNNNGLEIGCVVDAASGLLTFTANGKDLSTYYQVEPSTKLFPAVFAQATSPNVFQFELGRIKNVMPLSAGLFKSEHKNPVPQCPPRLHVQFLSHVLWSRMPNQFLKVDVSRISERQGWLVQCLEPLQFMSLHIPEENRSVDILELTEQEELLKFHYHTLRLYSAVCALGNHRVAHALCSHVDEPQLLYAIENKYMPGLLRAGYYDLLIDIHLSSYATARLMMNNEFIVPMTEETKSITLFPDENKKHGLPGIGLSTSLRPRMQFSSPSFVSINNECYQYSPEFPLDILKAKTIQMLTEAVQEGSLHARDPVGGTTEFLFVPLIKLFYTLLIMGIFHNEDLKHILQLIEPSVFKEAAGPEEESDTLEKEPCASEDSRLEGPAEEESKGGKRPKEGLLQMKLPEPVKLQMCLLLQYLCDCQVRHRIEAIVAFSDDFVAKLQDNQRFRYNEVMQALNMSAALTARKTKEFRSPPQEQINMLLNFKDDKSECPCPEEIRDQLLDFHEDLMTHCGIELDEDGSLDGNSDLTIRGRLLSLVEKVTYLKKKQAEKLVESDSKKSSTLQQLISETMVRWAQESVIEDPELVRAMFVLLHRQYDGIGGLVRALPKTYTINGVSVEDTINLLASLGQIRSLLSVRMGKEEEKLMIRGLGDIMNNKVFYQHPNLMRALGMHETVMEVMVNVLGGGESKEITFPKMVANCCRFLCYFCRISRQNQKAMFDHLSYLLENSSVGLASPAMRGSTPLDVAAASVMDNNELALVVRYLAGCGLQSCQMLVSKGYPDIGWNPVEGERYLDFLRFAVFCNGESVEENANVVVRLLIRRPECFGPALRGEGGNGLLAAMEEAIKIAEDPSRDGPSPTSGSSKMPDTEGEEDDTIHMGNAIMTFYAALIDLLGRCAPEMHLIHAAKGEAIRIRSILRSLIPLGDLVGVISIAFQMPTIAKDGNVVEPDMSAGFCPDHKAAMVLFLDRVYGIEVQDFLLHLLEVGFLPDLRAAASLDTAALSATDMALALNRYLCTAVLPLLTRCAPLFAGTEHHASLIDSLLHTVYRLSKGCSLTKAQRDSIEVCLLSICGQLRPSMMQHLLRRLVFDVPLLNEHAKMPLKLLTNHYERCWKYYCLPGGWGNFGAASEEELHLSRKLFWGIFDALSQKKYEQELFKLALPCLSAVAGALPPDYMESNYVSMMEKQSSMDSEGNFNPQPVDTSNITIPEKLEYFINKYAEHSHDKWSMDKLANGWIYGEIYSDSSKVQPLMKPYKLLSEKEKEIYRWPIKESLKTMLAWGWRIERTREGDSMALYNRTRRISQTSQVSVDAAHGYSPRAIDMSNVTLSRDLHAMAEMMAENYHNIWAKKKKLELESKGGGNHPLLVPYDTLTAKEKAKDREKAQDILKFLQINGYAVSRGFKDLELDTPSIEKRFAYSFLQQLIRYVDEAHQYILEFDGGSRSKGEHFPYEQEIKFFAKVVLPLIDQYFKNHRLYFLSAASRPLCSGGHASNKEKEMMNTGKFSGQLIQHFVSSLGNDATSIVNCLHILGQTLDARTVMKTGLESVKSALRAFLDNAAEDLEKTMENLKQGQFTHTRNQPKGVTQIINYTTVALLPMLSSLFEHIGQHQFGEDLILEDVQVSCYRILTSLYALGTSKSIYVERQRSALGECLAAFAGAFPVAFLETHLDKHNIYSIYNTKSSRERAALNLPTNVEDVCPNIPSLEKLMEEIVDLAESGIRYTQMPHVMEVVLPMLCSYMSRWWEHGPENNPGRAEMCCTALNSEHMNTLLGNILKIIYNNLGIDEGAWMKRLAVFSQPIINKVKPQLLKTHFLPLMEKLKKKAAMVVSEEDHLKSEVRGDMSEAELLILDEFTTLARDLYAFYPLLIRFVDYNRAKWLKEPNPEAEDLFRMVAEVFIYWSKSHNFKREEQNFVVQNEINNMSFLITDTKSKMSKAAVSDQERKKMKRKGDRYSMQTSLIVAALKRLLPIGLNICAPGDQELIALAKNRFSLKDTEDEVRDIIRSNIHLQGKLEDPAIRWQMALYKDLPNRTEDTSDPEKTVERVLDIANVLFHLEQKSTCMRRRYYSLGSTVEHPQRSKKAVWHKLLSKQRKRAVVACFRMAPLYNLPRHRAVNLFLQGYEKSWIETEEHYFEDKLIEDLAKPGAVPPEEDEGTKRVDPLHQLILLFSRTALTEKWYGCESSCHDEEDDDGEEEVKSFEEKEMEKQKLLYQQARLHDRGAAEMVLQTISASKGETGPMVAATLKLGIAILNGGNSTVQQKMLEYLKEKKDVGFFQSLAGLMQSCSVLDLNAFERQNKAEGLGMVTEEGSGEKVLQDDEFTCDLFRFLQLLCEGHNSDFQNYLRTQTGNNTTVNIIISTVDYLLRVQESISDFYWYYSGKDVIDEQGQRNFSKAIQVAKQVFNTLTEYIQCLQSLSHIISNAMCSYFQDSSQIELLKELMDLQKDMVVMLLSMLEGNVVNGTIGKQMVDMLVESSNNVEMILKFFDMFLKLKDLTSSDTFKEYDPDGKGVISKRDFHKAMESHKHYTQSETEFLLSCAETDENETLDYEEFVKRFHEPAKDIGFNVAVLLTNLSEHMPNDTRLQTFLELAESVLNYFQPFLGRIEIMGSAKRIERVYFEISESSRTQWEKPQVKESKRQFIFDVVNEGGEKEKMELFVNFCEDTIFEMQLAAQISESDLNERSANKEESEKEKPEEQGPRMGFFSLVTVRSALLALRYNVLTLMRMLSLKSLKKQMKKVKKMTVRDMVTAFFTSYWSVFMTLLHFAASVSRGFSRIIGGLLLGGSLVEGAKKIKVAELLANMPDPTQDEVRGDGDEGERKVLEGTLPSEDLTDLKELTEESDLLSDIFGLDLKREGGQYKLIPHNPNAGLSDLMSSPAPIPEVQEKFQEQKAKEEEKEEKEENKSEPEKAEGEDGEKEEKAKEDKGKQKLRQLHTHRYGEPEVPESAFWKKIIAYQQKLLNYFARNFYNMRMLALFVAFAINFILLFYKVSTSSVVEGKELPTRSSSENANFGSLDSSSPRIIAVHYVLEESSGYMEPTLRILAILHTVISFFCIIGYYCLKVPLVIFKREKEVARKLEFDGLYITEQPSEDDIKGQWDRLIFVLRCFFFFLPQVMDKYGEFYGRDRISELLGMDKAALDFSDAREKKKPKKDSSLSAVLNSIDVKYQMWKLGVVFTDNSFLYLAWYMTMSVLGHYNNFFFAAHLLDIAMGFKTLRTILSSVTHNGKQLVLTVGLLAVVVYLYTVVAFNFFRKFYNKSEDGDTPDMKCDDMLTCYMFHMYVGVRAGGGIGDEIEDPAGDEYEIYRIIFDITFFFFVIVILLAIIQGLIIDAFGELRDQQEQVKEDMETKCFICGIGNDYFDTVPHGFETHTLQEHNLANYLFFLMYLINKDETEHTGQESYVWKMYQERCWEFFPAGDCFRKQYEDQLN
Protocol: RyR2 activity was quantified by the fraction of [^3H]ryanodine bound to RyR2. […] Data are shown as mean±SD (n=6).
[^3H]ryanodine ligand binding assay—[^3H]ryanodine, [9,21-3H(N)] (56 Ci/mmol) was obtained from PerkinElmer. Porcine cardiac SR vesicles were isolated as previously described (Fruen et al., 2000) and incubated with, 200 nM CaM binding peptide, 0.1 μM CaCl2, 20 mM PIPES, 150 mM KCl, 5 mM GSH, 0.1 mg/mL BSA, 1 μg/mL aprotininin, lug/mL leupeptin, and 1 μM DTT for 30 min at 37° C. […] In 96-well plates, cardiac SR membranes (CSR, 3 mg/mL) were pre-incubated with 1% v/v ent-B1 (to yield the indicated drug concentrations) for 30 min, at 22° C., in a solution containing 150 mM KCl, 5 mM GSH, 1 μg/mL Aprotinin/Leupeptin, 1 mM EGTA, and 23 μM or 1.62 mM CaCl2 (100 nM or 30 μM free Ca^2+, respectively as determined by MaxChelator), 0.1 mg/mL BSA, and 20 mM K-PIPES (pH 7.0). Non-specific [^3H]ryanodine binding to SR was assessed by addition of 15 μM non-radioactive ryanodine. Maximal [^3H]ryanodine binding was assessed by addition of 5 mM adenylyl-imidodiphosphate (AMP-PNP), supplemented with 20 mM caffeine. […] Binding of [^3H]ryanodine (7.5 nM) was determined following a 3 h incubation at 37° C. and filtration through grade GF/B glass microfiber filters (Brandel Inc., Gaithersburg, MD, US) using a M96T-Brandel Harvester. […]

CCCCC[C@@H]1OC(=O)[C@@H](C)N(C)C(=O)[C@H](CCCCC)OC(=O)[C@@H](C)N(C)C(=O)[C@H](CCCCC)OC(=O)[C@@H](C)N(C)C1=O (single isomer, unassigned) [ent-B1]
reduction in ventricular ectopy burden ([1]; 30 mg/kg i.p., Casq2-/- mice, isoproterenol challenge): 70% | incidence of VT ([1]; 3 and 30 mg/kg i.p. vs vehicle): dose-dependent reduction | number of total ectopic beats ([1]; 3 and 30 mg/kg i.p. vs vehicle): dose-dependent reduction | suppression of ventricular tachycardia ([1]; only at the higher dose tested, 30 mg/kg): statistically significant suppression | arrhythmia risk scores ([1]; ordinal scale 0-4, vs vehicle): lower | pIC50 [2]: 5.72 and 5.71
